Measurements reported in the supplement of paper PMC10307832.

Key:
Assay in all cases: relative viability (nuclei count vs DMSO), 5 days (fraction); higher = more cells survive
[1] = compound: C1COCCN1C2=NC(=NC3=C2OC4=C3C=CC=N4)C5=CC(=CC=C5)NC(=O)C6=CN=C(C=C6)N + Cc1nc(NC(=O)N2CCC[C@H]2C(N)=O)sc1-c1ccnc(C(C)(C)C(F)(F)F)c1 [Alpelisib] (partner 2 µM)
How it was run: (§1)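 Values are medians from duplicate plates. Each reflects relative viability, defined as the nuclei count of treated wells over that of vehicle wells. Lung cancer cell lines in 1536-well plates were pin-tool dosed one day after seeding with one drug alone or with a fixed anchor-drug dose plus five library-drug doses (not always all listed) in √10 steps, then fixed, stained and imaged at 4× after 5 days.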

[2] = compound: C1COCCN1C2=NC(=NC3=C2OC4=C3C=CC=N4)C5=CC(=CC=C5)NC(=O)C6=CN=C(C=C6)N + O=C(c1cc(Cc2n[nH]c(=O)c3ccccc23)ccc1F)N1CCN(C(=O)C2CC2)CC1 [Olaparib] (partner 8 µM)
How it was run: as §1

[3] = compound: CN1CCC(CNc2ccc3ncc(-c4cccc(OC(F)(F)F)c4)n3n2)CC1 [SGI-1776] + CC(=O)Nc1cccc(-n2c(=O)n(C3CC3)c(=O)c3c(Nc4ccc(I)cc4F)n(C)c(=O)c(C)c32)c1 [Trametinib] (partner 0.02 µM)
How it was run: as §1

[4] = compound: CN1CCC(CNc2ccc3ncc(-c4cccc(OC(F)(F)F)c4)n3n2)CC1 [SGI-1776] + CS(=O)(=O)CCNCc1ccc(-c2ccc3ncnc(Nc4ccc(OCc5cccc(F)c5)c(Cl)c4)c3c2)o1 [Lapatinib] (partner 2 µM)
How it was run: as §1

| Cell Line | relative viability ([1]; first compound 0.02 µM) | relative viability ([1]; first compound 0.06325 µM) | relative viability ([1]; first compound 0.2 µM) | relative viability ([1]; first compound 0.6325 µM) | relative viability ([1]; first compound 2 µM) | relative viability ([2]; first compound 0.02 µM) | relative viability ([2]; first compound 0.06325 µM) | relative viability ([2]; first compound 0.2 µM) | relative viability ([2]; first compound 0.6325 µM) | relative viability ([2]; first compound 2 µM) | relative viability ([3]; first compound 0.08 µM) | relative viability ([3]; first compound 0.8 µM) | relative viability ([3]; first compound 2.53 µM) | relative viability ([3]; first compound 8 µM) | relative viability ([4]; first compound 0.08 µM) | relative viability ([4]; first compound 0.8 µM) | relative viability ([4]; first compound 2.53 µM) | relative viability ([4]; first compound 8 µM) |
| --- | --- | --- | --- | --- | --- | --- | --- | --- | --- | --- | --- | --- | --- | --- | --- | --- | --- | --- |
| 201T | 1.03 | 1.03 | 0.926 | 0.96 | 0.966 | 0.854 | 0.879 | 0.837 | 0.923 | 0.458 | 0.702 | 0.77 | 0.711 | 0.702 | 1 | 0.981 | 1.02 | 0.942 |
| A549 | 0.64 | 0.793 | 0.644 | 0.63 | 0.346 | 0.39 | 0.353 | 0.311 | 0.243 | 0.239 |  |  |  |  | 0.965 | 0.993 | 0.958 | 0.652 |
| A-427 | 1.13 | 1.11 | 1.04 | 0.907 | 0.798 | 0.795 | 0.717 | 0.72 | 0.789 | 0.598 | 0.749 | 0.726 | 0.722 | 0.542 | 1.05 | 1.02 | 1.01 | 0.966 |
| ABC-1 | 1.03 | 1.05 | 0.981 | 0.971 | 0.695 | 0.767 | 0.945 | 0.726 | 1.04 | 0.685 |  |  |  |  | 1.36 | 1.16 | 1.28 | 1.1 |
| BEN | 1.07 | 1.04 | 1.01 | 0.931 | 0.613 | 0.935 | 1.17 | 1.23 | 1.09 | 0.819 | 1.03 | 1.24 | 0.991 | 0.791 | 0.695 | 0.739 | 0.705 | 0.532 |
| CAL-12T | 1.26 | 1.29 | 1.26 | 1.15 | 0.537 | 0.66 | 0.727 | 0.69 | 0.764 | 0.569 | 0.433 | 0.399 | 0.33 | 0.288 | 0.635 | 0.61 | 0.871 | 0.598 |
| COR-L23 | 0.958 | 0.876 | 0.844 | 0.868 | 0.589 | 0.391 | 0.371 | 0.317 | 0.353 | 0.271 | 0.694 | 0.619 | 0.613 | 0.408 | 1.1 | 0.9 | 0.914 | 0.922 |
| Calu-6 | 1.09 | 0.979 | 0.882 | 0.936 | 0.721 | 0.685 | 0.68 | 0.604 | 0.528 | 0.467 |  |  |  |  | 1.12 | 1.11 | 1.01 | 0.771 |
| ChaGo-K-1 |  |  |  |  |  | 0.435 | 0.402 | 0.401 | 0.409 | 0.331 | 0.878 | 0.865 | 0.874 | 0.909 |  |  |  |  |
| EBC-1 | 0.653 | 0.728 | 0.742 | 0.713 | 0.478 | 0.7 | 0.77 | 0.582 | 0.668 | 0.356 |  |  |  |  | 0.207 | 0.214 | 0.182 | 0.138 |
| IA-LM |  | 0.853 | 0.582 | 0.609 | 0.43 | 0.858 | 0.826 | 0.689 | 0.616 | 0.394 |  |  |  |  | 0.923 | 0.726 |  | 0.72 |
| LCLC-103H | 0.87 | 0.993 | 0.962 | 0.967 | 0.878 | 0.732 | 0.799 | 0.815 | 0.745 | 0.502 | 0.658 | 0.689 | 0.633 | 0.642 |  |  |  |  |
| NCI-H441 | 0.832 | 0.93 | 0.751 | 0.715 | 0.433 | 0.451 | 0.553 | 0.686 | 0.536 | 0.414 | 0.497 | 0.51 | 0.5 | 0.294 |  |  |  |  |
| NCI-H522 |  |  |  |  |  | 0.584 | 0.649 | 0.63 | 0.554 | 0.525 | 0.81 | 0.789 | 0.723 | 0.798 |  |  |  |  |
| NCI-H1299 | 1.1 | 1.11 | 1.09 | 1.06 | 0.857 | 0.928 | 1.04 | 0.993 | 0.962 | 0.754 |  |  |  |  | 1.02 | 0.991 | 0.99 | 0.95 |
| NCI-H1563 | 0.886 | 0.871 | 0.855 | 0.843 | 0.729 |  |  |  |  |  |  |  |  |  | 0.869 | 0.939 | 1.02 | 0.825 |
| NCI-H1648 |  |  |  |  |  | 0.83 | 0.8 | 0.666 | 0.566 | 1.18 | 0.397 | 0.441 | 0.415 | 0.398 |  |  |  |  |
| NCI-H1650 |  |  |  |  |  | 0.72 | 0.903 | 0.757 | 0.88 | 0.591 | 0.543 | 0.521 | 0.504 | 0.371 | 0.877 | 0.983 | 0.809 | 0.343 |
| NCI-H1703 | 0.282 | 0.315 | 0.288 | 0.289 | 0.201 | 0.335 | 0.447 | 0.372 | 0.308 | 0.222 |  |  |  |  | 1.3 | 0.922 | 0.608 | 0.257 |
| NCI-H2342 |  |  |  |  |  | 0.472 | 0.46 | 0.402 | 0.391 | 0.4 | 0.891 | 0.779 | 0.809 | 0.769 |  |  |  |  |
| SW 900 |  |  |  |  |  | 0.981 | 0.945 | 0.743 | 0.804 | 0.655 | 0.855 | 0.76 | 0.653 | 0.724 |  |  |  |  |
